# Assay results taken from patent US8937073B2, “Disubstituted tetrahydrofuranyl compounds and their use as B1-receptor antagonists” (Boehringer Ingelheim International GmbH, priority 2010, dated 2015).
# Target: T1, cynomolgus B1 receptor (Macaca fascicularis, UniProt Q3BCU0)
# T1 construct: expressed in transfected cells; host or cells: CHO cells
# T1 sequence (Q3BCU0 1-352): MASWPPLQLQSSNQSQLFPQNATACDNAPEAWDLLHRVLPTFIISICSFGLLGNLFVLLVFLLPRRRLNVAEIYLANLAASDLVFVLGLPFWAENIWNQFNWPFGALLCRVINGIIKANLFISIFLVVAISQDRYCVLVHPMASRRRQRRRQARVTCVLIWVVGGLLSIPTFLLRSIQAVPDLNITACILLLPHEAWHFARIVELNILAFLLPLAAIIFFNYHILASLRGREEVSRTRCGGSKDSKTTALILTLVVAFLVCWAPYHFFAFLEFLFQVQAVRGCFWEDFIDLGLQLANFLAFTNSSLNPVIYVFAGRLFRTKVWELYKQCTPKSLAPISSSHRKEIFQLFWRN
# Assay: cynoBK1-receptor binding assay
# Conditions: homogenate of CHO cells expressing the cynomolgus B1 receptor; radioligand 0.5 to 5.0 nM kallidine (DesArg10,Leu9), [3,4-Prolyl-3,43H(N)]; 60-180 minutes at ambient temperature
# Description: Description of the Method of Binding the cynoBK1-Receptor
# CHO cells that express the cynomolgus B1 receptor are cultivated in “HAM′S F-12 Medium”. The medium is removed from confluent cultures, the cells are washed with PBS buffer, scraped off or detached using Versene and isolated by centrifuging. Then the cells are homogenised in suspension, the homogenate is centrifuged and resuspended. After the protein content has been determined 200 μl of the homogenate (50 to 250 μg protein/assay) are incubated for 60-180 minutes at ambient temperature with 0.5 to 5.0 nM kallidine (DesArg10,Leu9), [3,4-Prolyl-3,43H(N)] and increasing concentrations of the test substance in a total volume of 250 μl. The incubation is stopped by rapid filtration through GF/B glass fibre filters that have been pre-treated with polyethyleneimine (0.3%). The radioactivity bound to the protein is measured with a TopCount NXT. The radioactivity bound in the presence of 1.0 μM kallidine (DesArg10) is defined as non-specific binding. The concentration binding curve may be analysed using computer-aided non-linear curve fitting to determine the corresponding Ki value for the test substance.
# Test Results of the cynoBK1-Receptor Binding Assay: […]
row,Compound,Ki [nM]
1,COc1ccc(Nc2ccc(CNC(=O)[C@]3(NC(=O)c4cn[nH]c(=O)c4)CCOC3)c(F)c2)c(C(F)(F)F)c1 [Example 21],1.6
2,(S)-5-amino-N-(3-{[3-chloro-5-(4-methoxy-2-trifluoromethyl-phenylamino)-pyridin-2-yl-methyl]-carbamoyl}-tetrahydrofuran-3-yl)-nicotinamide [Example 6],18
3,(S)-5-amino-N-(3-{[3-fluoro-5-(4-methoxy-2-trifluoromethyl-phenylamino)-pyridin-2-ylmethyl]-carbamoyl}-tetrahydrofuran-3-yl)-nicotinamide [Example 3],4.7
4,(S)-5-amino-N-{3-[4-(4-methoxy-2-trifluoromethyl-phenylamino)-benzylcarbamoyl]-tetrahydrofuran-3-yl}-nicotinamide [Example 4],3.6
5,"(S)-6-oxo-1,6-dihydro-pyridazine-4-carboxylic acid-{3-[2-fluoro-4-(4-methoxy-2-trifluoromethyl-phenylamino)-benzylcarbamoyl]-tetrahydrofuran-3-yl}-amide [Example 1]",1
